Test results taken from publication doi:10.1101/2021.09.16.460603v1 (biorxiv, 2021).

Molecular target: T1, Bovine liver catalase (CAT) (Bos taurus, UniProt P00432)
T1 sequence (P00432 2-527): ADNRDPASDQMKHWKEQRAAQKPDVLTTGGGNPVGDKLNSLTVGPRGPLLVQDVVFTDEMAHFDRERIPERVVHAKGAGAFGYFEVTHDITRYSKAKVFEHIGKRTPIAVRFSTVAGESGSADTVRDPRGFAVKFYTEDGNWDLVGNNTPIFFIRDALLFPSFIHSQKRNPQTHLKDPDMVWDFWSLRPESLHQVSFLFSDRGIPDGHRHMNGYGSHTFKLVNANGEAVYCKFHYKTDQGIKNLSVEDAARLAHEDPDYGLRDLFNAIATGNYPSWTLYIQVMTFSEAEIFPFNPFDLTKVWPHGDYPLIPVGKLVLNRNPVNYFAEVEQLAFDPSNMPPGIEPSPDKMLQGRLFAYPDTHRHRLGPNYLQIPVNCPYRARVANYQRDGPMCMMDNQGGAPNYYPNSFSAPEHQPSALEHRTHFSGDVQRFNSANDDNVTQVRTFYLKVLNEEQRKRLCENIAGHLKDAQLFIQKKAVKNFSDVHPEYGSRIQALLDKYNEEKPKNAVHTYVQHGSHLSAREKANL
Test: H2O2 disappearance at […] nm after […] min preincubation with D-Pen
Type: biochemical

Structure (SMILES): CC(C)(S)[C@@H](N)C(=O)O [D-penicillamine]
- IC50: 191 ± 26 µM
